Experimental data from patent US5643890A, “Synthetic oligonucleotides which mimic telomeric sequences for use in treatment of cancer and other diseases” (priority 1995, dated 1997).
Like-named read-outs stand apart in the source and are kept apart here.

Assays:
[1] = system: OMA-BL1 cells; experiment: Growth rate / doubling time of OMA-BL1 cells cultured with oligo; format: cell-based, human; conditions: for Doubling Time (Hours of Doubling): observed for 5 days
Method: A cell line, OMA-BL1, of cells derived from an American Burkitt's lymphoma patient, which had the typical 8:14 chromosome translocation characteristic of Burkitt's lymphoma was tested according to the method of the invention. The OMA-BL1 cells have a homologous staining region along chromosome 18 (18 HSR). The cell line was grown in vitro consisting of RPMI 1640 medium supplemented with 20% fetal calf serum (RF20). 2 mM L-glutamine and antibiotics (streptomycin 100 μ/ml and penicillin) 2× week.
Phosphorothioate oligonucleotides corresponding to the recognition sequence for telomerase enzyme were synthesized. The sequence of oligonucleotides tested was 5'-(TTAGGG)-3' SEQ ID NO: 3. They were dissolved in RPMI1640 medium before using.
The cell lines were grown under concentration of 5×10^5 cells/ml and RPMI1640 with and without different concentrations of oligo. Concentrations of oligo used in the study were 1.25 μM and 2.5 μM. The growth rate of the cells was measured by counting the cells with a light microscope and Neuber cell counter on days 1, 3, and 5 after initiation of the culture. […]

[2] = system: OMA-BL1, Burkitt's Lymphoma; experiment: In vivo efficacy, OMA-BL1 Burkitt's lymphoma in nude mice, continuous subcutaneous infusion
Method: Nude mice were injected with 5×10^6 OMA-BL1 cells subcutaneously in the leg flank. The mice were observed daily for the appearance of tumors and general well-being. […] The mean fill volume of these pumps is 0.226 ml. A solution of 4 mg/ml of 6-mers and 20 μl of FITC-TAG-6 was prepared then sterile filtered through a 0.22 μm in line filter (Millipore). […]

[3] = system: Telomerase enzyme; experiment: Telomerase activity in extract of Chang cells incubated with oligo (32P-dGTP primer elongation, gel autoradiograph); format: cell-based, human; conditions: 3 μM oligo, three hours
Method: Chang cells (human liver carcinoma) were grown in three T150 flasks until they reached confluency. 5'-d(TTAGGG)-3' SEQ ID NO: 3 phosphorothioate oligonucleotide was added at 3 μM concentration to each of the flasks and was allowed to incubate for three hours. Cells were harvested by scraping with a rubber policeman. Telomerase enzyme was prepared according to the method of Dignam, J. D.; Lebovitz, R. M.; and Raeder, R. G. (1983). Accurate transcription initiation by RNA Polymerase II in a Soluble Extract From Isolated Mammalian Nuclei. Nucl. Acids Res. 11, 1475-1489. 20 μL samples were taken from -80° C. and 20 μL of a reaction mixture containing 4.0mM dATP, 4.0mM dTTP, 4.0 mM dGTP, 2.0 μM (5'-d(TTAGGG)3 -3') SEQ ID NO: 4 primer, 10 mM β-mercaptanol, 100 mM TRIS-acetate pH 8.5, 2.0 mM MgCl2, 1 mM spermidine, and 2 μL of 3000 Ci/mmol P^32 labeled dGTP.
Samples were incubated for 30 minutes at 30° C. and stopped by the addition 10 μL […] EDTA pH 8.0 and 2.0 μL of tracking dye. Samples were loaded onto a 12.5 percent acrylamide gel and run at 25 mA constant power for 4-5 hours until the tracking dye had run off the gel. The gel was then soaked in 10 percent glycerol and water and dried overnight between two sheets of cellophane. […] The telomerase activity was inhibited for the 6-mer oligo.

[4] = system: OMA-BL1 cells, PBE1 cells, HPB-null cell line; experiment: Cellular uptake of FITC-labeled oligo; format: cell-based; conditions: 6-mer compared with 18-mer; cell lines which have differentiated
From the text: Several studies were done on cellular uptake and thus efficiency of oligonucleotide sequences mimicking the telomere motif. FIGS. 4 and 5 depict the comparison of the 18-mer 5'-d(TTAGGG)3 -3' SEQ ID NO: 4 with the 6-mer TELIGO 5'-d(TTAGGG)-3' SEQ ID NO: 3 for cellular uptake of FITC-labeled oligo in OMA-BL1 cells (FIGS. 5 and 4(a)), PBE1 cells FIG. 4(b) and in the nondifferentiated HPB-null cell line FIG. 4(c). […] FIG. 6 depicts the effects of 5'-d(TTAGGG)-3' SEQ ID NO: 3 on growth of OMA-BL1 cells in vitro at 1.25 μM and 2.5 μM.

[5] = system: highly metastatic breast cancer cell line (Human); experiment: Tumor invasion assay (Matrigel invasion chambers) and proliferation, human breast cancer cell line; format: cell-based; conditions: for % control invasion / % inhibition: Human cell line, 48 hours; for proliferation (in words): human highly metastatic breast cancer cell line; for % inhibition: invasion
[6] = system: 410.4 cells; experiment: Tumor invasion assay (Matrigel invasion chambers) and proliferation, mouse breast cancer cell line; format: cell-based; conditions: for % control invasion / % inhibition: Mouse cell line, 48 hours; for % inhibition: invasion; for proliferation (in words): mouse highly metastatic breast cancer cell line
Method: Migration of 410.4 cells through matrigel coated Nucleopore filters was measured using Matrigel invasion chambers (Collaborative Biomedical Products). These chambers contained inserts with […] pore size and were coated with a uniform film of matrigel. 4×10^4 410.4 cells in Weymouths Medium plus 0.1% bovine serum albumin were added to the invasion chambers. The wells below the invasion chambers contained 0.5 ml of Weymouths plus 10% fetal calf serum as a chemoattractant. […] The noninvasive cells were then removed from the upper surface of the membrane with a cotton swab and the cells on the lower surface were stained using a Leucostat staining kit. The membranes then were removed from the chamber using a scalpel and the cells were counted under high power (450×) in 5 random fields.

[7] = system: telomerase; experiment: FAM labeled 6-mer recovered from urine of tumor-bearing nude mouse, size analysis of telomerase products; format: in vivo; conditions: nude mouse bearing OMA-BL1 tumor
Method: An FAM labeled 6-mer 5'-d(TTAGGG)-3' SEQ ID NO: 3 was injected into nude mice with Burkitt's lymphoma (OMA-BL1) cells growing in them. The FAM labeled TELIGO was recovered from the urine of a nude mouse bearing a tumor composed of OMA-BL1 cells. The urine was evaluated on an Applied Biosystem, Inc. Gene Scanner which can separate the products of the telomerase enzyme by size along the abscissa and reports the quantity of products by the fluorescence intensity along the ordinate in arbitrary units. An internal standard of rhodamine labeled nucleic acids is run in the same gel in order to establish the measurement of size of the telomerase enzyme products of the TELIGO. The FAM label verifies that the DNA is from the injected TELIGO 6-mer and the size additions of intervals of 6-base lengths is evidence of the telomerase enzyme activity which adds 6 bases per catalytic cycle.
All products were multiples of six which is significant because in that telomerase adds bases to telomeres in multiples of six. Thus it would seem the 6-mer interacts with telomerase to form unique products verifying interaction in vivo.

[8] = system: telomerase; experiment: HPB-null cell lysate, incorporation of labeled nucleic acids onto TELIGO 18-mer; format: cell-based; conditions: HPB-null cells
[9] = system: cell line; conditions: cited from earlier work
[10] = system: telomerase; experiment: Telomerase activity in OMA-BL1 cell lysate (densitometry of autoradiograph); format: biochemical, human; conditions: test not specified at b115
Method: An OMA-BL1 cell lysate was prepared to retain telomerase activity. The telomerase enzyme adds radioactive nucleic acids to the substrate which are separated on a polyacrylamide gel. The relative radioactivity in the gel was measured by densitomitry of the autoradiograph.

[11] = nude mice, 48 μg/day, 14 days, subcutaneous infusion

Row | Substance | effect on cell proliferation (in words) [1] | Doubling Time (Hours of Doubling) ([1]; 1.25 μM oligo) [h] | Doubling Time (Hours of Doubling) ([1]; 2.5 μM oligo) [h] | other results
1 | 5'AACGGTGAGGGGCAT-3' (chemistry not given here) [c-myc, antisense oligo to the c-myc gene, reference compound] | significantly decreased cellular proliferation | – | – | –
2 | 5'TATGCTGTGCCGGGGTCTTCGGGC-3' (chemistry not given here) [c-myb antisense oligonucleotide, reference compound] | significantly decreased cellular proliferation | – | – | –
3 | 5'-d(TGTGAG)-3' [reference compound] | – | 42.4 ± 1.8 | 40.9 ± 2.3 | tumor regression [2, 11]: no such action was observed
4 | 5'-d(TTAGGG)-3' (phosphorothioate backbone) [6-mer oligonucleotide which mimics the telomere motif] | drastically decreasing cell proliferation | 59.4 ± 7.5 | > 100 | effect on cell proliferation (in words) ([1]; listed as phosphorothioate 6-mer): significant decrease in cell proliferation; telomerase activity (elongation on autoradiograph) [3]: inhibited; cellular uptake of FITC-labeled oligo [4]: considerably higher cellular uptake; % control invasion [5]: 30%; proliferation (in words) [5]: inhibition of proliferation; % inhibition [5]: 70%; % control invasion [6]: 15%; % inhibition [6]: 75%; proliferation (in words) [6]: inhibition of proliferation; toxicity during the treatment [2, 11]: No toxicity was observed; tumor regression [2, 11]: regression of tumors; localization of the oligonucleotide ([2]; tumor bearing nude mice, continuous subcutaneous infusion): localization of the oligonucleotide in tumors; substrate for telomerase in vivo (FAM-labeled products in urine, multiples of six) [7]: substrate for telomerase in vivo
5 | 5'-d(GTTGAGGGG)-3' (DNA, backbone not given here) | – | 49.4 ± 4.02 | 60.71 ± 4.25 | –
6 | 5'-d(TTAGGGTTAGGGTTAGGGTTAGGG)-3' | – | > 100 | > 100 | –
7 | 5'-d(TTAGGGTTAGGGTTAGGG)-3' (DNA, backbone not given here) | – | > 100 | > 100 | % control invasion [5]: 8%; proliferation (in words) [5]: inhibition of proliferation; % inhibition [5]: 92%; % control invasion [6]: 21%; % inhibition [6]: 79%; proliferation (in words) [6]: inhibition of proliferation; extension on the TELIGO 18-mer (retained radioactivity) [8]: dependent upon the dose
8 | 5'-d(TAGGG)-3' (DNA, backbone not given here) | no inhibitory effect | 48.5 ± 3.0 | 41.6 ± 2.0 | –
9 | 5'-d(TCCTAGGTCCATGTCGTACGC)-3' (DNA, backbone not given here) [reference compound] | – | – | 38 | –
10 | 5'-d(TTAGG)-3' (DNA, backbone not given here) | no inhibitory effect | 31.2 ± 8.5 | 36.7 ± 3.1 | –
11 | 5'-d(TTAGGGTTAGGG):' (DNA, backbone not given here) [two telomere repeats] | – | > 100 | > 100 | days in culture before any observable response [9]: ≤ 6 days
12 | TGTGAGGGG (chemistry not given here) [myc 9-mer, 9-mer derived from the antisense oligo c-myc, contains a motif substantially analogous to the telomere motif] | effects similar to the 6-met | – | – | telomerase activity (in words) [10]: inhibited
13 | 5'-d(TGAGG)-3' (DNA, backbone not given here) | – | 30.3 ± 39 | 42.0 ± 6.8 | –
